Publication PMC7870626, “Neurotoxicity and underlying cellular changes of 21 mitochondrial respiratory chain inhibitors” (Archives of Toxicology, 2021)
Like-named read-outs stand apart in the source and are kept apart here.

How the values were obtained:
[1] = tested on: LUHMES cells; assay: NeuriTox test: neurite area and viability, 24 h; type: cell-based, human; settings: for EC25: Homo sapiens
Method: The NeuriTox test was performed as previously described (Delp et al. [2018b]; Krug et al. [2013a]; Stiegler et al. [2011]). Briefly, cells differentiated for 48 h were re-seeded into 96-well plates at a density of 100,000 cells/cm^2 in DM without cAMP and GDNF, and treated 1 h after seeding for 24 h. Subsequently, multiple endpoints were determined, e.g., neurite outgrowth (i.e., NeuriTox test), resazurin reduction, intracellular ATP content, gene expression levels from TempO-Seq analysis, and proteasomal activity. For the 120 h exposure scenario, LUHMES cells were differentiated for another 3 days after reseeding before they were treated on day 5 (d5) and d7 by a half medium exchange. Endpoints were determined on d10 of differentiation.
Image acquisition and analysis was performed as described previously (Krug et al. [2013a]; Schildknecht et al. [2013]; Stiegler et al. [2011]). In brief, cells were live-stained with 1 µg/ml Hoechst H-33342 and 1 µM calcein-AM and image acquisition was done by an automated high content imager (Cellomics, Waltham, MA, USA). Cell viability was determined as ratio of live cells (cell bodies being Calcein- and Hoechst-positive) relative to the total amount of cells (Hoechst-positive cell bodies). Neurite area was calculated by subtracting the somatic area (Hoechst-positive area plus surrounding) from the calcein-positive area.

[2] = tested on: SH-SY5Y cells; assay: Mitochondrial membrane potential (rhodamine 123), KE2 assay; type: cell-based, human; settings: for EC25: Homo sapiens; for Ratios of EC25 KE4/KE2 MMP: NeuriTox neurite EC25 relative to SH-SY5Y MMP EC25
Method: Cells were plated at a cell density of 29,500 cells/cm^2 and handled as described above for the neurite SH-SY5Y degeneration. On d6 of differentiation, 50% of the medium was replaced by differentiation medium containing 2 µM Rhodamine 123 (ThermoFisher). After 45 min of preloading at 37 °C with 5% CO2 in darkness, the Rhodamine 123 solution was completely removed and cells were carefully washed once with 200 µl DMEM:F12. Subsequently, 50 µl differentiation medium per well were added followed by the addition of 50 µl/well of test compounds in medium. After 24 h of exposure to the test compounds, the nuclei were stained for 30 min with 20 µL of a solution containing 20 µM Hoechst 33342, and the images were then acquired with a 10 × objective lens using the ImageXpress® Micro (Molecular Devices) high content microplate imager. Nuclei were evaluated in the DAPI channel (excitation 377 ± 50 nm, emission 447 ± 60 nm), whereas Rhodamine 123 fluorescence was detected in the FITC channel (excitation 475 ± 34 nm, emission 536 ± 40 nm). Analysis of the Hoechst 33,342 and Rhodamine 123 fluorescence was performed using the MetaXpress® Software (Molecular Devices) with the Transfluor HT plug-in and the parameters nuclei (for Hoechst-33342) and integrated granule intensity (for Rhodamine 123). Mitochondrial membrane potential (MMP) was quantified as the total fluorescence intensity of Rhodamine 123 in relation to the number of Hoechst-stained nuclei.

[3] = tested on: LUHMES cells; type: cell-based, human
Method: Cells were cultured and treated as described above for the NeuriTox assay. On d3, after 24 h treatment, culture medium was replaced by 33 µl/well 1 × Biospyder lysis buffer. After 15 min at room temperature, plates were sealed and frozen at -80 °C to complete lysis. Samples were analyzed at Bioclavis (Glasgow) using the TempO-Seq technique and the EU-ToxRisk v2.0 gene probe panel covering ca. 3000 genes (Yeakley et al. [2017]). All genes are listed in the supplementary excel file (containing also all gene regulations). Briefly, a 50 bp fragment of the target gene was amplified. The amplification step also introduced sample-specific barcodes. This allowed pooling of all samples and standard next-generation sequencing of the ensemble. Afterward, adapters were used to allocate the sequenced fragments to the correct samples. Finally, the alignment of all sequenced fragments (FASTQ files) for each sample to the collection of reference 50 bp oligonucleotides was performed for the quantification of reads per gene, also known as the read count values. In a pre-filtering step, samples with a total count < 0.2 million and genes with an average count < 1.5 were removed.
To correct for both read depth and RNA composition, the DESeq2′s median of ratios normalization was applied. The analysis of differentially expressed genes (DEG) of each treatment against the control group was done by the Wald test implemented in DESeq2/R (Love et al. [2014]), including an FDR correction for p-adjusted ≤ 0.05. […] A curve was fit through these concentration–response data to obtain EC10DEG. For comparability, all DEG data were normalized to a positive control. […] The EC10DEG was calculated using an established online open access BMC calculator (BMCeasy) (Krebs et al. [2020]).

[4] = tested on: HepG2 cells; assay: HepG2-based respirometry, total cell respiration (earlier study); settings: NeuriTox neurite EC25 relative to cell respiration EC25; respirometric data from HepG2-based assays ref van der Stel et al. 2020
[5] = tested on: U2OS cells; assay: cells; type: cell-based; settings: Homo sapiens, 24 h
Method: A cell suspension of 100,000 cells/ml was prepared in assay medium, and white 384-well plates were filled with 30 µl/well cell suspension. Twenty-four hours after seeding, a dilution series of test compound, as well as positive and negative controls, were added to the cells. After 24 h exposure, the medium was removed, and 10 µl of Triton X-100 lysis buffer was added to each well. The luminescent signal was determined in a luminometer by injecting BDS Illuminate Mix and measuring the light emission. The Cytotox CALUX cell line constitutively expresses a high level of luciferase protein; the light emission is therefore proportional to the cell number of live cells, and its decrease can be used as measure of cytotoxicity. The light emission generated by cells exposed to vehicle control was set to 100%, and the luminescence of cells exposed to the positive control toxicant tributyltin acetate [100 µM] was set to 0%. The light output of the cells exposed to different concentrations of test compounds was scaled accordingly.

[6] = tested on: MRC complex (cI, cII or cIII); assay: HepG2-based MRC complex assay in permeabilized cells (earlier study); type: cell-based; settings: NeuriTox neurite EC25 relative to complex assay EC25 in permeabilized cells; respirometric data from HepG2-based assays ref van der Stel et al. 2020
[7] = tested on: proteasome; assay: Proteasomal activity (KE3 assay) in LUHMES cells; type: cell-based, human; settings: for Ratios of EC25 KE4/KE3 proteasomal: NeuriTox neurite EC25 relative to proteasomal activity EC25, LUHMES
Method: Activity of the proteasome was quantified as described in (Gutbier et al. [2018b]). Briefly, after exposure, culture medium was replaced by assay buffer containing a cell-permeable proteasomal substrate (MeOSuc-Gly-Leu-Phe-AMC, 25 µM (Bachem, Bubendorf, Switzerland) in HBSS). Its AMC-fluorescence (ex: 360 nm, em: 465 nm) increases with proteasomal activity and was monitored for 90 min. Background-corrected data were used for further analysis.

[8] = NeuriTox exposure scheme, 24 h, read-out: LUHMES 24 h EC25 NA (neurite area) (converted)
[9] = NeuriTox exposure scheme, 24 h, read-out: LUHMES 24 h EC25 V (viability) (converted)
[10] = NeuriTox test, neurite outgrowth impairment, LUHMES 24 h, read-out: EC25 KE4 (AO) Neurite toxicity (converted)
[11] = SH-SY5Y differentiated 6 days, treated 24 h, rhodamine-123, read-out: pEC25 MMP (concentration where MMP was reduced by 25%) (converted)
[12] = U2OS osteosarcoma cells, luminescence of constitutively expressed luciferase, read-out: Cytotox EC25 U2OS (converted)

## C=C(C)[C@H]1Cc2c(ccc3c2O[C@@H]2COc4cc(OC)c(OC)cc4[C@@H]2C3=O)O1 [Rotenone]
[1]
  Offset between neurite endpoint (LUHMES/SH-SY5Y) and U2OS viability: > 100 fold
[1]; 24 h, read-out: EC25 KE4 (AO) Neurite toxicity
  EC25: 0.0794 µM
[1]; 24 h, read-out: LUHMES 24 h EC25 NA (neurite area)
  EC25: 0.0794 µM
[1]; 24 h, read-out: LUHMES 24 h EC25 V (viability)
  EC25: > 10 µM
[2]; SH-SY5Y, 24 h, read-out: pEC25 MMP (concentration where MMP was reduced by 25%)
  EC25: 0.0398 µM
[2]
  Ratios of EC25 KE4/KE2 MMP: 2.1
[3]
  log2FoldChange AARS: -0.41 log2
  log2FoldChange AASDHPPT: 0.79 log2
  log2FoldChange AATF: -0.42 log2
  log2FoldChange ABCA1: -0.98 log2
  log2FoldChange ABCA6: -0.24 log2
[4]
  Ratios of EC25 KE4/KE1 total respiration: 1.3
[5]; U2OS, read-out: Cytotox EC25 U2OS
  EC25: 31.6 µM
[6]
  Ratios of EC25 KE4/KE1 complex assay: 7.9
[7]; LUHMES
  Potency on neurotoxicity (KE4/AO) relative to proteostasis (KE3): 100 times
[7]
  Ratios of EC25 KE4/KE3 proteasomal: 0.01
[7]; d2 LUHMES, 22 h incubation
  Proteasomal function (in words): reduced proteasome function at non-cytotoxic concentrations

## CCOCCc1ccc(OCCN=c2[nH]cnc(CC)c2Cl)c(C)c1C [Pyrimidifen]
[1]; [8]
  EC25: 15.8 µM
[1]; [9]
  EC25: 39.8 µM
[1]; [10]
  EC25: 15.8 µM
[2]; [11]
  EC25: 0.794 µM
[2]
  Ratios of EC25 KE4/KE2 MMP: 21
[3]; gene AARS, 0.08 µM, 24 h, vs 0.1% DMSO
  log2FoldChange AARS: -0.45 log2
[3]; gene AASDHPPT, 0.08 µM, 24 h, vs 0.1% DMSO
  log2FoldChange AASDHPPT: 0.72 log2
[3]; gene AATF, 0.08 µM, 24 h, vs 0.1% DMSO
  log2FoldChange AATF: -0.0132 log2
[3]; gene ABCA1, 0.08 µM, 24 h, vs 0.1% DMSO
  log2FoldChange ABCA1: -1.62 log2
[3]; gene ABCA6, 0.08 µM, 24 h, vs 0.1% DMSO
  log2FoldChange ABCA6: 0.65 log2
[4]
  Ratios of EC25 KE4/KE1 total respiration: 1260
[5]; [12]
  EC25: 100 µM
[6]
  Ratios of EC25 KE4/KE1 complex assay: 15850
[7]
  Ratios of EC25 KE4/KE3 proteasomal: 1.1

## Cc1ccccc1C(=O)Nc1cccc(OC(C)C)c1 [Mepronil]
[1]; [8]
  EC25: 100 µM
[1]; [9]
  EC25: > 100 µM
[1]; [10]
  EC25: > 100 µM
[2]; [11]
  EC25: 5.01 µM
[3]; gene AARS, 0.20 µM, 24 h, vs 0.1% DMSO
  log2FoldChange AARS: 0.46 log2
[3]; gene AASDHPPT, 0.20 µM, 24 h, vs 0.1% DMSO
  log2FoldChange AASDHPPT: 0.19 log2
[3]; gene AATF, 0.20 µM, 24 h, vs 0.1% DMSO
  log2FoldChange AATF: 0.22 log2
[3]; gene ABCA1, 0.20 µM, 24 h, vs 0.1% DMSO
  log2FoldChange ABCA1: 0.65 log2
[3]; gene ABCA6, 0.20 µM, 24 h, vs 0.1% DMSO
  log2FoldChange ABCA6: 0.20 log2
[5]; [12]
  EC25: > 100 µM
[6]
  Ratios of EC25 KE4/KE1 complex assay: > 5.0
[7]
  Ratios of EC25 KE4/KE3 proteasomal: > 0.8

## COc1cc(CNC(=O)CCCC/C=C/C(C)C)ccc1O [Capsaicin]
[1]; [8]
  EC25: > 50.1 µM
[1]; [9]
  EC25: > 50.1 µM
[2]; [11]
  EC25: > 10 µM
[3]; gene AARS, 0.10 µM, 24 h, vs 0.1% DMSO
  log2FoldChange AARS: -0.12 log2
[3]; gene AASDHPPT, 0.10 µM, 24 h, vs 0.1% DMSO
  log2FoldChange AASDHPPT: 0.45 log2
[3]; gene AATF, 0.10 µM, 24 h, vs 0.1% DMSO
  log2FoldChange AATF: -0.07 log2
[3]; gene ABCA1, 0.10 µM, 24 h, vs 0.1% DMSO
  log2FoldChange ABCA1: -0.65 log2
[3]; gene ABCA6, 0.10 µM, 24 h, vs 0.1% DMSO
  log2FoldChange ABCA6: -2.67 log2
[5]; [12]
  EC25: 63.1 µM

## Cc1ccc(-c2c(Cl)nc(C#N)n2S(=O)(=O)N(C)C)cc1 [Cyazofamid]
[1]; [8]
  EC25: 50.1 µM
[1]; [9]
  EC25: > 50.1 µM
[1]; [10]
  EC25: 50.1 µM
[1]; LUHMES NeuriTox concentration range
  Precipitation in the assay: precipitate in the active concentration range
[2]; [11]
  EC25: 0.2 µM
[2]
  Ratios of EC25 KE4/KE2 MMP: 225
[3]; gene AARS, 0.00781 µM, 24 h, vs 0.1% DMSO
  log2FoldChange AARS: -1.30 log2
[3]; gene AASDHPPT, 0.00781 µM, 24 h, vs 0.1% DMSO
  log2FoldChange AASDHPPT: 1.09 log2
[3]; gene AATF, 0.00781 µM, 24 h, vs 0.1% DMSO
  log2FoldChange AATF: -0.24 log2
[3]; gene ABCA1, 0.00781 µM, 24 h, vs 0.1% DMSO
  log2FoldChange ABCA1: -1.98 log2
[3]; gene ABCA6, 0.00781 µM, 24 h, vs 0.1% DMSO
  log2FoldChange ABCA6: 0.44 log2
[5]; [12]
  EC25: 100 µM
[6]
  Ratios of EC25 KE4/KE1 complex assay: < 5
